# Laboratory results reported in patent US7052910B2, “Skeletal cell model to screen anti-diabetic compounds” (Council of Scientific and Industrial Research, priority 2001, dated 2006).
# Legend:
# [1] = system: IRS-1; experiment: Tyrosine phosphorylation and expression of IRS-1 in C2C12 myotubes differentiated in serum free medium without (MF) or with chronic insulin (MFI); immunoblot; type: cell-based, mouse
# Experimental: (§1) FIG. 5 represents the effect of insulin stimulation on control and chronically insulin-differentiated cells: Cells were stimulated with 100 nm of insulin for 5 min. Cell lysates were run on sodium dodecyl sulphate-7%-polyacrylamide gel electrophoresis (SDS-7%-PAGE) and were immunoblotted with antiphosphotyrosine antibody (A) or anti-IRS-1 antibody (C) or anti-IR-β antibody (E). Cell lysates were immunoprecipitated with antibodies to IRS-1 (B) or IR-β (D) and immunoblotted (IB) with antiphosphotyrosine antibody; and FIG. 6 represents the effect of pioglitazone on tyrosine phosphorylation of IRS-1 and IR-β: Pioglitazone was added at 50 μM concentration during the last day of differentiation for 24 hr. Then, the cells were stimulated with 100 nm of insulin for 5 min. Cell lysate were immunoblotted (IB) with antiphosphotyrosine antibody (A) or α-IRS-1 (B). Cell lysates of the samples prepared the same immunoprecipitated (IP) with antibodies and immunoblotted (IB) with antiphosphotyrosine (C) or anti-IR-β (D) antibodies. C2C12 cells were grown in DMEM (Dulbecco's Modified Eagle Medium) containing 15% FCS (fetal calf serum). The cells were differentiated in serum free medium in the absence or chronic presence of 100 nm insulin. After three days the differentiation was complete. […]
# [2] = system: IR-β; experiment: Tyrosine phosphorylation and expression of IR-β in C2C12 myotubes differentiated in serum free medium without (MF) or with chronic insulin (MFI); immunoprecipitation and immunoblot; type: cell-based, mouse
# Experimental: as §1
substance,measurement,setting,value
insulin,ability of IRS-1 to undergo tyrosine phosphorylation in response to insulin,"[1]; C2C12 cells differentiated in chronic presence of 100 nm insulin (MFI), FIG. 5B",impaired
same,tyrosine phosphorylation of IRS-1 (Mr 160–170 kDa protein),"[1]; control (MF) C2C12 myotubes stimulated with 100 nm insulin for 5 min, FIG. 5A",insulin stimulated tyrosine phosphorylation
same,expression of IR-β,"[2]; C2C12 cells differentiated in chronic presence of 100 nm insulin, FIG. 5E",reduced
same,tyrosine phosphorylation levels of IR,"[2]; MFI (chronic 100 nm insulin) versus MF differentiated C2C12 cells, FIG. 5D",Severe reduction
